Results published in ChEMBL document CHEMBL5465560, “Selectivity Literature for EUbOPEN Chemogenomic Library” (2024).

What was measured:
[1] = biological target: Mitogen-activated protein kinase 7 (Homo sapiens) (UniProt Q13164); experiment: Selectivity interaction (KinomeScan (DiscoverX)) EUB0001049a MAPK7; settings: at 1 µM
[2] = biological target: Mitogen-activated protein kinase kinase kinase kinase 4 (Homo sapiens, UniProt O95819); experiment: Selectivity interaction (Kinase panel (KiNativ target engagement assay in Jurkat cells)) EUB0001635a MAP4K4; type: cell-based; settings: Selectivity number of off-targets 0.0, Selectivity number of targets 233.0, Source Knowledge https://www.sciencedirect.com/science/article/pii/S2451945619300674?via%3Dihub, at 1 µM
[3] = biological target: T1, EKC/KEOPS complex subunit TP53RK (Homo sapiens) (UniProt Q96S44); experiment: Selectivity interaction (Kinase panel (KiNativ target engagement assay in Jurkat cells)) EUB0001635a TP53RK; type: cell-based; settings: Selectivity number of off-targets 0.0, Selectivity number of targets 233.0, Source Knowledge https://www.sciencedirect.com/science/article/pii/S2451945619300674?via%3Dihub, at 1 µM
T1 sequence (whole entry): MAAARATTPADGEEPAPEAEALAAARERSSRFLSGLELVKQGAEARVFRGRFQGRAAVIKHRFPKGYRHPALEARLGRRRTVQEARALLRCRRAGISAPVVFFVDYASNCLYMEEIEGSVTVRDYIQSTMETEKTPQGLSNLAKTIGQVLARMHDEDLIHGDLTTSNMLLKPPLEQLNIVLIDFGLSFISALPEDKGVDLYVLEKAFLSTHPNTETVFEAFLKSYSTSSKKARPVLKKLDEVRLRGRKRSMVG

[4] = biological target: Ribosomal protein S6 kinase alpha-5 (Homo sapiens) (UniProt O75582); settings: at 10 µM
[5] = biological target: T2, Serine/threonine-protein kinase Nek9 (Homo sapiens) (UniProt Q8TD19); experiment: Selectivity interaction (ActivX KiNativ screen (kinase selectivity in THP-1 cell lysates)) EUB0000639a NEK9; type: subcellular; settings: lysate, at 0.01 µM
T2 sequence (whole entry): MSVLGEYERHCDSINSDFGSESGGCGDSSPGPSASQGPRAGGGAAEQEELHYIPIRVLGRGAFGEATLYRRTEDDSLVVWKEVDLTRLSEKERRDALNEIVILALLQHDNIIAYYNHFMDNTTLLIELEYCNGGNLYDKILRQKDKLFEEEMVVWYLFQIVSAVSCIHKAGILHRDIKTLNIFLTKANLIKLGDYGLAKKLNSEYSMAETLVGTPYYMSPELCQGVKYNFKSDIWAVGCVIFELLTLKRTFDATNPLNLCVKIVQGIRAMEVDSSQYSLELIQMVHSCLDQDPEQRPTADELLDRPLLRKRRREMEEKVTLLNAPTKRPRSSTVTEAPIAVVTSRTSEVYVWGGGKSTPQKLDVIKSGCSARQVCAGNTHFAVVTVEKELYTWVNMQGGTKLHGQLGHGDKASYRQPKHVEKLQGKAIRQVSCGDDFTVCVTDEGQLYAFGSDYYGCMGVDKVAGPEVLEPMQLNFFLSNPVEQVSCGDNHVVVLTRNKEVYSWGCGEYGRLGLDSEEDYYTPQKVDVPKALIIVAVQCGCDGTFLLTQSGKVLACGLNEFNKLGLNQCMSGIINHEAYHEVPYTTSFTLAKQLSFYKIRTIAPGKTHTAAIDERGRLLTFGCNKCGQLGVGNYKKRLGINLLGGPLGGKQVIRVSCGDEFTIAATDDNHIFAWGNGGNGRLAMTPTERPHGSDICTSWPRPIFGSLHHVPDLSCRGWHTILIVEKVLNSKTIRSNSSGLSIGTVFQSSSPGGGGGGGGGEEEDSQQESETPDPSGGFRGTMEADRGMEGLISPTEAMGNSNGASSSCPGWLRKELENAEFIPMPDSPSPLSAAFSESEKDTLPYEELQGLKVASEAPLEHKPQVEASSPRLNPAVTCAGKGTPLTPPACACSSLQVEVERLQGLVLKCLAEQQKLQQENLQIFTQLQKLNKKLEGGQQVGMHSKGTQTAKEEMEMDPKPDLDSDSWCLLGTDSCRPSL

[6] = biological target: Myosin light chain kinase, smooth muscle (Homo sapiens, UniProt Q15746); experiment: Selectivity interaction (KinomeScan (DiscoverX)) EUB0000618a MYLK; settings: at 10 µM
[7] = biological target: Tyrosine-protein kinase receptor UFO (Homo sapiens) (UniProt P30530); experiment: Selectivity interaction (KinomeScan (DiscoverX)) EUB0000618a AXL; settings: at 10 µM
[8] = biological target: Tyrosine-protein kinase Fgr (Homo sapiens) (UniProt P09769); experiment: Selectivity interaction (ActivX KiNativ screen (ex vivo kinase selectivity in human PBMCs)) EUB0001619a FGR; type: cell-based; settings: PBMC, at 1 µM
[9] = biological target: Serine/threonine-protein kinase 24 (Homo sapiens) (UniProt Q9Y6E0); experiment: Selectivity interaction (ActivX KiNativ screen (ex vivo kinase selectivity in human PBMCs)) EUB0001619a STK24; type: cell-based; settings: PBMC, at 1 µM
[10] = biological target: RAC-beta serine/threonine-protein kinase (Homo sapiens) (UniProt P31751); experiment: Selectivity interaction (KinomeScan (DiscoverX)) EUB0000655a AKT2; settings: at 10 µM
[11] = biological target: Serine/threonine-protein kinase pim-2 (Homo sapiens, UniProt Q9P1W9); experiment: Selectivity interaction (SelectScreen profiling (Invitrogen)) EUB0000607a PIM2; settings: at 2 µM
[12] = biological target: Tyrosine-protein kinase BTK (Homo sapiens, UniProt Q06187); experiment: Selectivity interaction (KinomeScan (DiscoverX)) EUB0000607a BTK; settings: at 10 µM
[13] = biological target: Histone-lysine N-methyltransferase SETDB1 (Homo sapiens) (UniProt Q15047); experiment: Selectivity interaction (Methyltransferase screen (radiometric assays, panel of 8 PRMTs, 21 protein lysine methyltransferases, 3 DNA methyltransferases, and one RNA methyltransferase)) EUB0000271b SETDB1

Sequence of Tyrosine-protein kinase BTK (Q06187 whole entry): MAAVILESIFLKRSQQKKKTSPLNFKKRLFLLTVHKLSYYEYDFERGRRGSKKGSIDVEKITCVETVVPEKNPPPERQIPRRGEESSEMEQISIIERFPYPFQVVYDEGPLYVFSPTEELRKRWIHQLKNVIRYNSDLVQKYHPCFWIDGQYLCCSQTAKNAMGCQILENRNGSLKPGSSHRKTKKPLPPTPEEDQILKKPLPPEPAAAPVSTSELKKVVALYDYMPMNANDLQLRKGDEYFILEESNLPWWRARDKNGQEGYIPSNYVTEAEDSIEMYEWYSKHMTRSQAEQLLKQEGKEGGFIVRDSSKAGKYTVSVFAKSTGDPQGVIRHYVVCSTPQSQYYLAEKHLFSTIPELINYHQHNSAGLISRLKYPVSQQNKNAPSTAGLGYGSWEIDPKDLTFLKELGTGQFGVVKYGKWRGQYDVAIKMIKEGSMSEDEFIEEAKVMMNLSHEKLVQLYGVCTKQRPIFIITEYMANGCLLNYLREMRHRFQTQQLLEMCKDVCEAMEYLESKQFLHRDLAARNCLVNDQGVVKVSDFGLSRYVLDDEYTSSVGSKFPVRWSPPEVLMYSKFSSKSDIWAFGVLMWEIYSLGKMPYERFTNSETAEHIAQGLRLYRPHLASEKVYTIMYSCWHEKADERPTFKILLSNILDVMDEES
Sequence of Myosin light chain kinase, smooth muscle (Q15746 whole entry): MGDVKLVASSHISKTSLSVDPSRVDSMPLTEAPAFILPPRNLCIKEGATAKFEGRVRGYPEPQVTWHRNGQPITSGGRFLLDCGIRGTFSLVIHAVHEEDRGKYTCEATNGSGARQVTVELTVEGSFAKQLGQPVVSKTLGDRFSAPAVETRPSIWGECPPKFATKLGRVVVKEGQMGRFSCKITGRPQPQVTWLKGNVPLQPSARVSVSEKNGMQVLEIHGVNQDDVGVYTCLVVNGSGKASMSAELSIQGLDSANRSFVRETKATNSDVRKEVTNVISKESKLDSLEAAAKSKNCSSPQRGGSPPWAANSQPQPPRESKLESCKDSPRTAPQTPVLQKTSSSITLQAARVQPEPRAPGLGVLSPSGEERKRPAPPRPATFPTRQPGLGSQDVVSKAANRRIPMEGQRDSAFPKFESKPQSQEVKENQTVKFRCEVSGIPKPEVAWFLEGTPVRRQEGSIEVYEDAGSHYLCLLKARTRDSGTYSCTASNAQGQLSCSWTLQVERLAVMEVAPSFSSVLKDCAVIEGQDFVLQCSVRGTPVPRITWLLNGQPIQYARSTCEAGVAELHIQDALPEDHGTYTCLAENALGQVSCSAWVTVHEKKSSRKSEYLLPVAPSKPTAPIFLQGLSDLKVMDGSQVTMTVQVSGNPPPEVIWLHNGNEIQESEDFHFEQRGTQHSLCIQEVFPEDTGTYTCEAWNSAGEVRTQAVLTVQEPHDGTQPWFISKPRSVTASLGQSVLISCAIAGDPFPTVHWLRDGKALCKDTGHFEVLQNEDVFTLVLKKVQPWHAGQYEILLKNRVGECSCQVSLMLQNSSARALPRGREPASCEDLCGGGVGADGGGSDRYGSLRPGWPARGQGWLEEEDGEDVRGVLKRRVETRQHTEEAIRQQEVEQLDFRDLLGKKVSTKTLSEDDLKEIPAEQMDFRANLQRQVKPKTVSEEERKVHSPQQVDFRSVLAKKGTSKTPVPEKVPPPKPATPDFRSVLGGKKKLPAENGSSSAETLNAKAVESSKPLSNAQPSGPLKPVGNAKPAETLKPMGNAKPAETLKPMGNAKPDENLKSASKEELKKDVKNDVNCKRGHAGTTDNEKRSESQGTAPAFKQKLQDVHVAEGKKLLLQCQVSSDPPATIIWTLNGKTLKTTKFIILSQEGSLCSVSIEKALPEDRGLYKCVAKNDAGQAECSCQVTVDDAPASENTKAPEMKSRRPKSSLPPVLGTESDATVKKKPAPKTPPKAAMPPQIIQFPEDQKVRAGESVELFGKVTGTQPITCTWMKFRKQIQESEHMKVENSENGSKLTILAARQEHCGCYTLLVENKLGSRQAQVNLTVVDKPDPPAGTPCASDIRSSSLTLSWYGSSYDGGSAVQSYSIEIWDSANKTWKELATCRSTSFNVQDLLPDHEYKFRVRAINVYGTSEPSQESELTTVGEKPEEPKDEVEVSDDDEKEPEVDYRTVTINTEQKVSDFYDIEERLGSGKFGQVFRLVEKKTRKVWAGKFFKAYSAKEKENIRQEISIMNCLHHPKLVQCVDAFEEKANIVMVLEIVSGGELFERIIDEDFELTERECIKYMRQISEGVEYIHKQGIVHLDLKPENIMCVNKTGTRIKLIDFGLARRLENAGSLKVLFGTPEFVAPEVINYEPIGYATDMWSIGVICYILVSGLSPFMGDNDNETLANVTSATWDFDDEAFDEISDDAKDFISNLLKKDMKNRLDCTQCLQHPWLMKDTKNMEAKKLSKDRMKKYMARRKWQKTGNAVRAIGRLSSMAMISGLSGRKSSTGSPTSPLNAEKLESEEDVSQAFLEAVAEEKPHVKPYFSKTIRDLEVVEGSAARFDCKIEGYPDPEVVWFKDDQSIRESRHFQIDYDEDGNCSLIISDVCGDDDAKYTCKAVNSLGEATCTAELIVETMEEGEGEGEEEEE
Sequence of RAC-beta serine/threonine-protein kinase (Homo sapiens) (P31751 whole entry): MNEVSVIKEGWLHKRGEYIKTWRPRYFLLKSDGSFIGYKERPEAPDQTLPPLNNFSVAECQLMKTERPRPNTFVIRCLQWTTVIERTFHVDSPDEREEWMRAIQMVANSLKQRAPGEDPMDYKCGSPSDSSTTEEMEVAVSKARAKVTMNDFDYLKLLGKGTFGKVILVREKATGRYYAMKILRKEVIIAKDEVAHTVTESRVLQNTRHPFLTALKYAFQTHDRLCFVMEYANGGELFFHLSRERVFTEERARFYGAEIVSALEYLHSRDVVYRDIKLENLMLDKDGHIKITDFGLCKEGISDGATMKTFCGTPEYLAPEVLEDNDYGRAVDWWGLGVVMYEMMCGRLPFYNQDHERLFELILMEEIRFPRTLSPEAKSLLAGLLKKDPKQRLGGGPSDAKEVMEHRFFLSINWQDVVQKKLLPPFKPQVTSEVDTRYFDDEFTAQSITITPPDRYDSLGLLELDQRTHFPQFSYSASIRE
Sequence of Tyrosine-protein kinase receptor UFO (Homo sapiens) (P30530 whole entry): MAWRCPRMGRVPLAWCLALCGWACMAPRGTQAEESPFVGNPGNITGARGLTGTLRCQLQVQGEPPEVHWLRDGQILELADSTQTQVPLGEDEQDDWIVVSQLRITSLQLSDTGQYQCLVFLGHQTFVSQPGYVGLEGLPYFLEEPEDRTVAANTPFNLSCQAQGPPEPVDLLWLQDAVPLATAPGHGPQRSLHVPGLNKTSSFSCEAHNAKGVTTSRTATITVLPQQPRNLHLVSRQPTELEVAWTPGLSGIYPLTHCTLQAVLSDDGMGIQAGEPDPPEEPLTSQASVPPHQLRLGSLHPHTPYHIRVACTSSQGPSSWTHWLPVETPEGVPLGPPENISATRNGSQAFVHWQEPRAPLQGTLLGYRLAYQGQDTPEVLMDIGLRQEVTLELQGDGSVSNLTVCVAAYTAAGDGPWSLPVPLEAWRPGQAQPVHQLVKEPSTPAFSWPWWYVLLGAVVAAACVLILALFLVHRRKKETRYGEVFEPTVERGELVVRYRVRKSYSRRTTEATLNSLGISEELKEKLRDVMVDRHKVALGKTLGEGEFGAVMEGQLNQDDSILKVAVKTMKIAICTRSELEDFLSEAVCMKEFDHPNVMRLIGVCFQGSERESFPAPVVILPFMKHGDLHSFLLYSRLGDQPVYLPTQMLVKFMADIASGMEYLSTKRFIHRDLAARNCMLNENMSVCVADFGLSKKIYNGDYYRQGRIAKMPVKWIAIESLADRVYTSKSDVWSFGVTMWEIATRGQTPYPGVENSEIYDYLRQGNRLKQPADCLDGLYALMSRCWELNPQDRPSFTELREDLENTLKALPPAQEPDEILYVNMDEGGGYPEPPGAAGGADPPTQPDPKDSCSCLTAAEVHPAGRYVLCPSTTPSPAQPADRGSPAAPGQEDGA
Sequence of Serine/threonine-protein kinase pim-2 (Q9P1W9 whole entry, looked up): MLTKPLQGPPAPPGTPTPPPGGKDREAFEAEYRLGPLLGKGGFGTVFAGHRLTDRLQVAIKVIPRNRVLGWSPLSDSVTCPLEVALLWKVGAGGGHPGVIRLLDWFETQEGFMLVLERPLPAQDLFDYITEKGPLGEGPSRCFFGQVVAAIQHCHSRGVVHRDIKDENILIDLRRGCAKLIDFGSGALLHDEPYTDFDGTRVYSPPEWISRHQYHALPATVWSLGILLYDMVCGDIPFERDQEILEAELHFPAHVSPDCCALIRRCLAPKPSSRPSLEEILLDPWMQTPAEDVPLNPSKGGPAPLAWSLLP
Sequence of Mitogen-activated protein kinase 7 (Homo sapiens) (Q13164 2-816 limits assumed): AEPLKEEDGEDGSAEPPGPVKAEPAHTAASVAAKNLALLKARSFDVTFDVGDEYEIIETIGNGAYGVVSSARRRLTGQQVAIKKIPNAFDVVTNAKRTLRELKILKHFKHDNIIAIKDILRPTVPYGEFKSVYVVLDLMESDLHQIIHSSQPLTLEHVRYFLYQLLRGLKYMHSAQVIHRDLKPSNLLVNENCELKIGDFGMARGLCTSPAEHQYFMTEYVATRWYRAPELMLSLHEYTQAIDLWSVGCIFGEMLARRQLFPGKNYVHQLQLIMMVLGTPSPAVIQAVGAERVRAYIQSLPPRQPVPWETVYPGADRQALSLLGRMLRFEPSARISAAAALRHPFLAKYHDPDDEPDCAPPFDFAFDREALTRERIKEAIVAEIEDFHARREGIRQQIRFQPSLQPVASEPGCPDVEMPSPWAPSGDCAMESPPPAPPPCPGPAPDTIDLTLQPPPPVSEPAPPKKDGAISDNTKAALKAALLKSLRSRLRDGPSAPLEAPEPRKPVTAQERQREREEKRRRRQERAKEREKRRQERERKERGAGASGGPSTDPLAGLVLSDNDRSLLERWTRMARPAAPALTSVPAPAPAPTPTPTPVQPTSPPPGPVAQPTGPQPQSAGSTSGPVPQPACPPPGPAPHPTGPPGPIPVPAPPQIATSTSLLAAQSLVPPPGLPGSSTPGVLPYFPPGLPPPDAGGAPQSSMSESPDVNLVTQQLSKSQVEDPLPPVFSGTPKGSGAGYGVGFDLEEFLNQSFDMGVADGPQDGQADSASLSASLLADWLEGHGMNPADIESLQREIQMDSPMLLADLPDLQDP

## COc1cc(Nc2nc(C)cc(-c3cnn4nc(OC)ccc34)n2)cc(C(F)(F)F)c1
[1]
  % of control: 83%

## C=CC(=O)Nc1ccc(C(=O)Nc2[nH]nc3c2CN(C(=O)N[C@H](CN(C)C)c2ccccc2)C3(C)C)cc1
[2]
  % of engagement: -15.4%
[3]
  % of engagement: -14.9%

## CCN(CC)CCCCNc1ncc2cc(-c3cc(OC)cc(OC)c3)c(NC(=O)NC(C)(C)C)nc2n1
[4]
  % of control: 100%

## CC[C@@H]1[C@H](F)C(=O)N[C@@H]1COc1nccc2cc(C(N)=O)c(OC)cc12 [ZIMLOVISERTIB]
[5]
  % of inhibition: 1.1%

## O[C@H]1CC[C@H](Nc2ncc3nc(Nc4c(F)cc(F)cc4F)n([C@H]4CCOC4)c3n2)CC1
[6]
  % of control: 65%
[7]
  % of control: 86%

## N#Cc1cccc(-c2c[nH]c3ncnc(N4CCOCC4)c23)c1
[8]
  % of inhibition: -34%
[9]
  % of inhibition: 39%

## CN(C)CCOc1ccc(-c2nc(-c3ccncc3)c(-c3ccc4c(c3)CC/C4=N\O)[nH]2)cc1
[10]
  % of control: 100%

## CNC(=O)Nc1ccc(-c2nc(N3CC4CCC(C3)O4)c3cnn(C4CCC5(CC4)OCCO5)c3n2)cc1
[11]
  % of inhibition: 3%
[12]
  % of control: 90%

## Cc1cc(C)cc([C@@H]2c3cc(C)ccc3NC(=O)CN2C(=O)c2ccc(Br)s2)c1
[13]; at 1 µM
  % of activity: 102%
[13]; at 10 µM
  % of activity: 104%
